# Laboratory results reported in publication PMC5428354, “Screening of a natural compound library identifies emodin, a natural compound from Rheum palmatum Linn that inhibits DPP4” (PeerJ, 2017).
# Several values for one entry are separate records, joined by “and”; a condition that tells them apart may be missing. Equal values may be shown once.
# Tests used:
# [1] = biological target: DPP8 (Homo sapiens, UniProt Q6V1X1); experiment: DPP8 activity assay (BPS Bioscience kit); format: biochemical;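 for DPP8 assay, Emission (450 nm): fluorescence read with excitation at 365 nm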
# Procedure: A DPP8 assay kit was purchased from BPS Bioscience (Cat# 800208), and the assay protocol was followed to test for inhibitory activity on DPP8. Briefly, DPP substrate 1 was diluted to make a 100 µM stock solution, and DPP8 protein was diluted in DPP assay buffer to 2 ng/µl (20 ng/reaction). For the tested compounds, 10 µl of diluted DPP8 protein, 5 µl of diluted DPP substrate 1, 84 µl of DPP assay buffer and 1 µl of inhibitor were addedinto the assay system for a total volume of 100 µl. The reaction mixtures were prepared in duplicate on a 96-well plate and incubated at room temperature for 10 min. […]
# [2] = biological target: DPP4 (Homo sapiens, UniProt P27487); experiment: Dialysis assay followed by DPP4 assay; format: biochemical
# Procedure: Dialysis assay was performed using Slide-A-Lyzer Dialysis Cassettes (Pierce, Shanghai, China). Briefly, 2 mg DPP4 protein was incubated with emodin or dimethyl sulfoxide (DMSO) in 4 ml diluted assay buffer for 10 min at 37 °C. Mixed reaction solution was loaded onto a dialysis cartridge using a syringe and incubated at 4 °C for 8 h. The samples were removed from Dialysis Cassettes by syringes for DPP4 assay.
# [3] = biological target: T1, plasma DPP4 activity (Mus musculus, UniProt P28843); experiment: Plasma DPP4 activity after oral emodin (DPP4-Glo assay kit); format: in vivo, mice; settings: for plasma DPP4 activity, raw signal / DPP4 activity, raw signal: individual animals; for DPP4 activity, raw signal: C57BL/6 (head)
# T1 construct: followed by plasma collection at different time points to measure DPP4 activity in the blood; from tissue; host or cells: mouse plasma (Balb/c and ob/ob mice)
# [4] = Blood glucose levels after oral emodin; format: in vivo, mice; design: unit not given here; settings: 30 mg/kg P.O., C57BL/6 (head), individual animals
# Sequence of DPP4 (P27487 whole entry, species assumed): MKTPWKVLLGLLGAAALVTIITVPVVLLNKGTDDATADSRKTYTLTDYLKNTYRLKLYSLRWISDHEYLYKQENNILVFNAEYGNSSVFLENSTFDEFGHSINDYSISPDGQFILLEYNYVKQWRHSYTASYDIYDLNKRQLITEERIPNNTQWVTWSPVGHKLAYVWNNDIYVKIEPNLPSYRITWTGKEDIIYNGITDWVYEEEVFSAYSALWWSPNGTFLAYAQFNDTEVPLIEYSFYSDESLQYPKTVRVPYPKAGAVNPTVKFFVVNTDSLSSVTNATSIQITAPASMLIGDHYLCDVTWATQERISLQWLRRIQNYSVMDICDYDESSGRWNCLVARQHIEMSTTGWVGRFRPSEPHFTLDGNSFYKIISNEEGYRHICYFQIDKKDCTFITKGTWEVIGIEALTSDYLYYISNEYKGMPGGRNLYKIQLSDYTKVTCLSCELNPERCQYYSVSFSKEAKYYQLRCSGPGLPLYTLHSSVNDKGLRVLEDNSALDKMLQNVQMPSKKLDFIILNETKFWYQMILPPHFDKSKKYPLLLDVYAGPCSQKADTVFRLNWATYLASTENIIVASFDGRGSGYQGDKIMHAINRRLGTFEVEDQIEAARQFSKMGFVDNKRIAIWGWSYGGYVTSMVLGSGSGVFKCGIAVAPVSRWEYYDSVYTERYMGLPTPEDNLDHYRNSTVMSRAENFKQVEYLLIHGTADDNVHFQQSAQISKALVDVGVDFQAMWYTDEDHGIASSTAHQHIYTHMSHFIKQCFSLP
# T1 sequence (P28843 37-760 limits assumed): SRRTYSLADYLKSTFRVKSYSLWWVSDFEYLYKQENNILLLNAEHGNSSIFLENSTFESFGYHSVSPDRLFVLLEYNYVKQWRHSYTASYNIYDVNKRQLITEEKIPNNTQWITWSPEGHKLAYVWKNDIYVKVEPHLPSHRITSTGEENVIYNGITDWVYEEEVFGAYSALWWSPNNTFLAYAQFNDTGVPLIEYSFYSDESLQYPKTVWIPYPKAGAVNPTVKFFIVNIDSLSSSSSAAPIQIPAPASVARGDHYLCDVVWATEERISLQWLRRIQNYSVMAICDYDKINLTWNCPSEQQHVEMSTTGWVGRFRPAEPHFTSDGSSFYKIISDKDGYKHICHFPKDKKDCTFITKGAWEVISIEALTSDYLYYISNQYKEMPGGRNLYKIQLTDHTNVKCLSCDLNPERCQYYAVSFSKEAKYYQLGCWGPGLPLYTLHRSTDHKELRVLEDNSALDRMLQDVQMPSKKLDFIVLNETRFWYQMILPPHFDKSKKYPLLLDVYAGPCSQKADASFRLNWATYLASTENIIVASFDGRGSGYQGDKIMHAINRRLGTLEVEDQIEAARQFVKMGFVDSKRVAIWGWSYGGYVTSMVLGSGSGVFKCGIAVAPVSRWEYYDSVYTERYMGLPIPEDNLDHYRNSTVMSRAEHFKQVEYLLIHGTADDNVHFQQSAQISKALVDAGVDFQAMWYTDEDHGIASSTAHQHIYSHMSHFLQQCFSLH
# Sequence of DPP8 (Q6V1X1 whole entry): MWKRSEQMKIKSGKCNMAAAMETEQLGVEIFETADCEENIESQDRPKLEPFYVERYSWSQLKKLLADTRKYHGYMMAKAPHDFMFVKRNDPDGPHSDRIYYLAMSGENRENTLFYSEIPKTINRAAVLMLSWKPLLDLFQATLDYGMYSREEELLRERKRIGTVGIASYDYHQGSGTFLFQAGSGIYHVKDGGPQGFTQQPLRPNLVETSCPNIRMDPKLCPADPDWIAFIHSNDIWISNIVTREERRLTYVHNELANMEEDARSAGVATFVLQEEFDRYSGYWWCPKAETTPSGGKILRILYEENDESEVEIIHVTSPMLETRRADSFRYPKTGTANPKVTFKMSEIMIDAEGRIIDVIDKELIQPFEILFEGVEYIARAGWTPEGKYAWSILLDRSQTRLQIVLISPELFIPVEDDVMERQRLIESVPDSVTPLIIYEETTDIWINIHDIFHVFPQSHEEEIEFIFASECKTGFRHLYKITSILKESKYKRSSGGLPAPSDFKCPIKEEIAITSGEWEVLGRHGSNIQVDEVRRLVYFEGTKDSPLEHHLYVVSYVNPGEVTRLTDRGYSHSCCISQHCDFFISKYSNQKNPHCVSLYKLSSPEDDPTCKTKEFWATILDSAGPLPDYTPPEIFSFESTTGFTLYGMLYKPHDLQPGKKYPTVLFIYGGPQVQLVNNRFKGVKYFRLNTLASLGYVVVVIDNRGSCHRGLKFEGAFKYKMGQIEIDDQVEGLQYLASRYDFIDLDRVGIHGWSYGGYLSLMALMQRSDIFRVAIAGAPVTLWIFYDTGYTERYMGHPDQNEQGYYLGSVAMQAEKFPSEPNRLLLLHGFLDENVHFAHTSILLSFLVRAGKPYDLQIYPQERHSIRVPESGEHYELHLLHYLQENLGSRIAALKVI
structure (smiles),measurement,setting,value
Cc1cc(O)c2c(c1)C(=O)c1cc(O)cc(O)c1C2=O [Emodin],"DPP8 assay, Emission (450 nm)","[1]; 100 µM, Exp #1-#5",25326 and 25088 and 25860 and 47385 and 48311
same,DPP8 activity,"[1]; 100 µM, Exp #1-#5, DMSO = Ctrl",91.7 % of Ctrl and 91.1 % of Ctrl and 90.2 % of Ctrl and 93.0 % of Ctrl and 89.9 % of Ctrl
same,activity against DPP8,[1]; tested at 100 µM,without inhibiting
same,DPP4 activity in dialysis assay,"[2]; 8 hr of dialysis, triplicate",90 % of DMSO and 88 % of DMSO and 85 % of DMSO
same,"DPP4 activity in dialysis assay, raw signal","[2]; 8 hr of dialysis, triplicate",4500000 RLU and 4400000 RLU and 4250000 RLU
same,manner of binding to the DPP4 active site,[2]; dialysis 8 h at 4 °C,reversible manner
same,time for which plasma DPP4 activity stayed decreased,"[3]; 3 mg/kg P.O., Balb/c mice, rebounded afterwards",1 h
same,"plasma DPP4 activity, raw signal","[3]; 3 mg/kg P.O., time 0 h (baseline), Balb/c mice",200500 and 223040 and 210853
same,"plasma DPP4 activity, raw signal","[3]; 3 mg/kg P.O., time 0.5 h, Balb/c mice",157120 and 186480 and 184560
same,"plasma DPP4 activity, raw signal","[3]; 3 mg/kg P.O., time 2 h, Balb/c mice",291827 and 237493 and 317253
same,"plasma DPP4 activity, raw signal","[3]; 3 mg/kg P.O., time 4 h, Balb/c mice",377573 and 331360 and 321880
same,"plasma DPP4 activity, raw signal","[3]; 10 mg/kg P.O., time 0 h (baseline), Balb/c mice",349733 and 267840 and 314147
same,"plasma DPP4 activity, raw signal","[3]; 10 mg/kg P.O., time 1 h, Balb/c mice",158860 and 133520 and 164280
same,"plasma DPP4 activity, raw signal","[3]; 10 mg/kg P.O., time 2 h, Balb/c mice",158760 and 116813 and 222440
same,"plasma DPP4 activity, raw signal","[3]; 10 mg/kg P.O., time 4 h, Balb/c mice",367160 and 355600 and 350787
same,time for which downregulation of DPP4 activity was maintained,"[3]; 30 mg/kg P.O., Balb/C mice, n = 5",2 h
same,"DPP4 activity, raw signal","[3]; 30 mg/kg P.O., 0 hours (baseline)",2962300 and 3555100 and 2704100 and 2803100 and 3111100
same,"DPP4 activity, raw signal","[3]; 30 mg/kg P.O., 1 hours",2755900 and 3040800 and 2268700 and 2388700 and 2836800
same,"DPP4 activity, raw signal","[3]; 30 mg/kg P.O., 2 hours",3055900 and 3015200 and 2510000 and 2257000 and 2971200
same,"DPP4 activity, raw signal","[3]; 30 mg/kg P.O., 4 hours",2708000 and 3031400 and 2814800 and 2664500 and 2844400
same,"DPP4 activity, raw signal","[3]; 30 mg/kg P.O., 8 hours",3130600 and 3310000 and 2020300 and 3224400 and 3166700
same,effect on DPP4 activity,"[3]; 30 mg/kg P.O., both Balb/C mice and ob/ob (-/-) mice",significant downregulation
same,time for which downregulation of DPP4 activity was maintained,"[3]; 30 mg/kg P.O., ob/ob (-/-) mice, n = 5",4 h
same,"plasma DPP4 activity, raw signal","[3]; 30 mg/kg P.O., time 0 h (baseline), Balb/c mice",290800 and 216573 and 224480
same,"plasma DPP4 activity, raw signal","[3]; 30 mg/kg P.O., time 0.5 h, Balb/c mice",175387 and 222147 and 170307
same,"plasma DPP4 activity, raw signal","[3]; 30 mg/kg P.O., time 1 h, Balb/c mice",159040 and 152000 and 181707
same,effect on plasma DPP4 activity,"[3]; 3, 10 and 30 mg/kg, P.O., Balb/c mice, n = 5",decreased the plasma DPP4 activity in a dose-dependent manner
same,time until which lower plasma DPP4 activity was maintained,"[3]; 10 and 30 mg/kg P.O., Balb/c mice",2 h
same,Blood glucose,[4]; 0 hours (baseline),15.5 and 10.4 and 10.9 (2×) and 11.2
same,Blood glucose,[4]; 1 hours,10.8 (2×) and 12.2 and 9.3 and 9.7
same,Blood glucose,[4]; 2 hours,9.3 and 9.7 and 8.4 and 8.3 and 8
same,Blood glucose,[4]; 4 hours,8.3 and 7.4 and 7.6 and 9.1 and 7.9
same,Blood glucose,[4]; 8 hours,15.9 and 11.5 and 12.6 (2×) and 15.3
